Reference: publication PMC11476552, “Synthesis and Preliminary Studies for In Vitro Biological Activity of Two New Water-Soluble Bis(thio)carbohydrazones and Their Copper(II) and Zinc(II) Complexes” (International Journal of Molecular Sciences, 2024)

Test: Zn(II) complex formation equilibria, spectrophotometric titration at pH 7.4
Format: physicochemical
Details: for Log β([Zn2L]) / Log β([ZnL]): conditional formation constant, aqueous 25 mM HEPES buffer, pH 7.4, 25 °C
Description: The best fit was obtained using a speciation model that consists of the sequential formation of a monometallic [ZnL] and a bimetallic [Zn2L] species. In fact, two families of spectra were observed, according to the presence in solution of two complex species and the free ligand. The first family of spectra (Zn/L = 0–1) (Figure S25) is characterized by a decrease in intensity for the bands of the free ligand at 239, 315, and 450 nm, and the appearance of bands at 251 and 394 nm. There are four isosbestic points at 245, 280, 371, and 429 nm. The second family of spectra (Zn/L = 1–2) (Figure S26) presents redshift and increase in absorbance of the band at 251 nm, the disappearance of the band at 349 nm, and redshift with decrease of absorbance of the band at 394 nm. […] The log β values for the formation of Zn(II) complexes with Na2H4L^1 · 5.5 H2O can be estimated (Table 4), and a representative distribution diagram is reported in Figure S27.
The spectra are characterized by four bands at ca. 238, 255, 305, and 371 nm, with those at 255 and 371 nm increasing in intensity with the addition of metal ions. The presence of these separated absorption bands led to the observation of three apparent isosbestic points at 243, 276, and 345 nm. Analogously to the Zn(II)/bis-thiocarbohydrazone system, the best fit was obtained using a speciation model that consists of the sequential formation of a monometallic [ZnL] and a bimetallic [Zn2L] species. In Figure 8, the absorbance values at 307 nm as a function of the equivalents of added Zn(II) are reported. The absorbance trend presents two almost linear regions between 0 and 1 eq. of Zn(II) and between 1 and 2 eq., respectively. This is, in fact, consistent with the sequential formation of two species with Zn:L ratios of 1:1 and 2:1, respectively. […] This behaviour is, perhaps, to be expected, taking into account the softer nature of the thiocarbohydrazonic group.
Samples used for the study of protonation equilibria of the ligands were prepared as follows. […] For each solution, the absorption spectrum was collected in the 220–600 nm range at 298.2 K. The spectral data collection was carried out immediately after the preparation of the samples and repeated after 3 and 10 min for all the samples at different pH values to check the stability of the ligand. […] The complex formation equilibria at pH 2.5 or 7.4 of bis-TCH and bis-CH with Cu(II) and Zn(II) ions were studied by direct spectrophotometric titrations of solutions of the ligands with the metal ions, and the samples were prepared as follows. Appropriate aliquots of the stock solutions of the ligands were diluted in a quartz cuvette of 1 cm path length using HEPES buffer (pH 7.4) or by adding HCl aqueous solution (pH 2.5) to obtain ca. 17 µM ligand solutions in a total volume of 2.6 mL. The obtained ligand solutions were titrated with Cu(II) or Zn(II) titrant solutions (ca. 442 µM) up to a metal/ligand ratio of 3 for the studies at pH 7.4 and up to a Cu(II):ligand ratio of 5 (for Na2H4L^1 · 5.5 H2O) and 7 (for Na2H4L^2 · 5 H2O) for the studies at pH 2.5. […]
The logarithms of the apparent stability constants were calculated from the spectral dataset using HypSpec2014 software. […] All equilibria were studied at fixed pH, and therefore the determined log β values are logarithms of conditional formation constants. […] Speciation diagrams were calculated using the Hyss2009 software. […]

| SMILES | Log β([Zn2L]) | Log β([ZnL]) | higher stability of Zn(II) complexes versus Na2H4L^2 · 5 H2O (difference in log β, both species) (pH 7.4, [ZnL] and [Zn2L]) |
| --- | --- | --- | --- |
| COc1cc(S(=O)(=O)[O-])cc(/C=N/NC(=O)N/N=C/c2cc(S(=O)(=O)[O-])cc(OC)c2O)c1O.[Na+].[Na+] [bis-CH, Bis-(sodium 3-methoxy-5-sulfonate-salicylaldehyde)-carbohydrazone] | 13.61(4) | 7.08(3) | – |
| COc1cc(S(=O)(=O)[O-])cc(/C=N/NC(=S)N/N=C/c2cc(S(=O)(=O)[O-])cc(OC)c2O)c1O.[Na+].[Na+] [bis-TCH, Bis-(sodium 3-methoxy-5-sulfonate-salicylaldehyde)-thiocarbohydrazone] | 15.29(10) | 8.40(6) | ca. 1.5 log units |
